Laboratory results reported in ChEMBL document CHEMBL1201862, “PubChem BioAssay data set” (2004).
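Dose response: 5 concentrations. Exposure: 48 h. Format: 96-well plates. Endpoint: linear interpolation; highest concentration if not reached. GI50 marks 50% less growth.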 The source made the active and inactive calls. No stated cut-off is given here; in the data, active = GI50 up to about 1.1 µM and inactive = higher.

Key:
Assay in all cases: inhibition of tumour cell growth, NCI panel, 48 h
SK-MEL-28 = tested on: SK-MEL-28
NCI-H460 = tested on: NCI-H460
HOP-92 = tested on: HOP-92
IGROV-1 = tested on: IGROV-1
LOX IMVI = tested on: LOX IMVI
SK-MEL-2 = tested on: SK-MEL-2
SK-OV-3 = tested on: SK-OV-3
NCI-H522 = tested on: NCI-H522
NCI-H23 = tested on: NCI-H23
EKVX = tested on: EKVX
SR = tested on: SR
CCRF-CEM = tested on: CCRF-CEM
RPMI-8226 = tested on: RPMI-8226
K562 = tested on: K562
HCT-116 = tested on: HCT-116
SW-620 = tested on: SW-620
A498 = tested on: A498
OVCAR-4 = tested on: OVCAR-4
Hs-578T = tested on: Hs-578T
T47D = tested on: T47D

SMILES | GI50 (SK-MEL-28) | GI50 (NCI-H460) | GI50 (HOP-92) | GI50 (IGROV-1) | GI50 (LOX IMVI) | GI50 (SK-MEL-2) | GI50 (SK-OV-3) | GI50 (NCI-H522) | GI50 (NCI-H23) | GI50 (EKVX) | GI50 (SR) | GI50 (CCRF-CEM) | GI50 (RPMI-8226) | GI50 (K562) | GI50 (HCT-116) | GI50 (SW-620) | GI50 (A498) | GI50 (OVCAR-4) | GI50 (Hs-578T) | GI50 (T47D)
Cc1ccc(NC(=O)CC2C(=O)Nc3ccccc3[S+]2[O-])c(C)c1 (stereo not given) | 15.8 µM (inactive) | 13 µM (inactive) | 13.9 µM (inactive) | 12.8 µM (inactive) | 16.4 µM (inactive) | 9.35 µM (inactive) | 17.6 µM (inactive) | 6.89 µM (inactive) | 14.9 µM (inactive) | > 61.7 µM (inactive) | 2.9 µM (inactive) | 11.5 µM (inactive) | 12.1 µM (inactive) | 4.03 µM (inactive) | 8.69 µM (inactive) | 5.81 µM (inactive) | 18.9 µM (inactive) | 17.3 µM (inactive) |  | 
COc1ccc(OC)c(NCC(=O)Nn2cnc3ccc(S(=O)(=O)Nc4cc(OC)ccc4OC)cc3c2=O)c1 | > 100 µM (inactive) | 86.3 µM (inactive) | > 100 µM (inactive) | > 100 µM (inactive) | 41.1 µM (inactive) | 35.4 µM (inactive) | > 100 µM (inactive) | 40 µM (inactive) | 66.7 µM (inactive) | > 100 µM (inactive) | 25.4 µM (inactive) | 35.5 µM (inactive) |  | 44.3 µM (inactive) | 32.6 µM (inactive) | > 100 µM (inactive) |  | > 100 µM (inactive) | > 100 µM (inactive) | 
CC(=O)c1cc(S(=O)(=O)c2ccc(O)c(C(C)=O)c2)ccc1O | 38.7 µM (inactive) | 84.9 µM (inactive) | > 100 µM (inactive) | > 100 µM (inactive) | 70.3 µM (inactive) | 92 µM (inactive) | 66.7 µM (inactive) | > 100 µM (inactive) | 58.1 µM (inactive) | > 100 µM (inactive) | 33.4 µM (inactive) | 34.4 µM (inactive) | 44.4 µM (inactive) | 79.4 µM (inactive) | 92 µM (inactive) | > 100 µM (inactive) | 64.4 µM (inactive) | > 100 µM (inactive) |  | 51.8 µM (inactive)
COc1cc2c(cc1O)CN1CCC23C=C[C@@H](O)CC13 (stereo not given in full) | 76.4 µM (inactive) | 62.8 µM (inactive) | > 100 µM (inactive) | 88.3 µM (inactive) | 46.6 µM (inactive) | 44.8 µM (inactive) | > 100 µM (inactive) | 52.4 µM (inactive) | 78.7 µM (inactive) | 65.8 µM (inactive) | 40.6 µM (inactive) | 28.2 µM (inactive) | > 100 µM (inactive) | 51.3 µM (inactive) | 34.1 µM (inactive) | 59.6 µM (inactive) | > 100 µM (inactive) | 33.2 µM (inactive) |  | 
c1cc(-c2ccc(-c3nc4ccc(C5=NCCN5)cc4s3)s2)ccc1C1=NCCN1 | 1.71 µM (inactive) | 0.286 µM (active) | 0.299 µM (active) | 0.313 µM (active) | 0.262 µM (active) | 1.27 µM (inactive) | 0.711 µM (active) | 0.114 µM (active) | 0.813 µM (active) | 1.28 µM (inactive) | 0.231 µM (active) | 0.0962 µM (active) | 0.295 µM (active) | 0.82 µM (active) | 0.351 µM (active) | 1.02 µM (active) | 0.719 µM (active) | 0.182 µM (active) |  | 0.483 µM (active)
CC12CC(c3ccccc3O1)C(C(=O)Nc1ccc(Cl)cc1Cl)C(=O)N2 (stereo not given) | 72.8 µM (inactive) | 31.6 µM (inactive) |  | 24.2 µM (inactive) | 22.5 µM (inactive) | > 100 µM (inactive) | 73.8 µM (inactive) | 56.8 µM (inactive) | 25.9 µM (inactive) | 18.3 µM (inactive) |  | 15 µM (inactive) | 44 µM (inactive) | 38.3 µM (inactive) | 34.3 µM (inactive) | 24.8 µM (inactive) |  | 19.6 µM (inactive) | 25.2 µM (inactive) | 20.3 µM (inactive)
O=C(NCCC1CN(S(=O)(=O)C(F)(F)F)c2ccccc21)OCc1ccccc1 (stereo not given) | > 100 µM (inactive) | > 100 µM (inactive) | 77.4 µM (inactive) | > 100 µM (inactive) |  | > 100 µM (inactive) | > 100 µM (inactive) | 57 µM (inactive) | > 100 µM (inactive) | > 100 µM (inactive) | > 100 µM (inactive) | 38.6 µM (inactive) | > 100 µM (inactive) | 66.1 µM (inactive) | > 100 µM (inactive) | > 100 µM (inactive) | > 100 µM (inactive) | > 100 µM (inactive) | 76.6 µM (inactive) | 
Nc1nc(-[n+]2ccc(-c3ccncc3)cc2)nc(Cl)c1Cl | 47 µM (inactive) | > 100 µM (inactive) | 23.8 µM (inactive) | 17.6 µM (inactive) | 15 µM (inactive) | 57.4 µM (inactive) | > 100 µM (inactive) |  | 22.5 µM (inactive) | 26.6 µM (inactive) | 20 µM (inactive) | 13.9 µM (inactive) | 17.2 µM (inactive) | 29.9 µM (inactive) | > 100 µM (inactive) | 25.5 µM (inactive) | > 100 µM (inactive) | > 100 µM (inactive) |  | 16.5 µM (inactive)
COc1ccc(OC2(c3cc(OC)ccc3OC)OC(=O)c3ccccc32)cc1 (stereo not given) | > 100 µM (inactive) | > 100 µM (inactive) | > 100 µM (inactive) | > 100 µM (inactive) | > 100 µM (inactive) | > 100 µM (inactive) | > 100 µM (inactive) | > 100 µM (inactive) | > 100 µM (inactive) | > 100 µM (inactive) | > 100 µM (inactive) | > 100 µM (inactive) | > 100 µM (inactive) | > 100 µM (inactive) | > 100 µM (inactive) | > 100 µM (inactive) | > 100 µM (inactive) | > 100 µM (inactive) |  | 
COc1cc2c(c(OC)c1OC)C(=O)NCCC2 | > 100 µM (inactive) | > 100 µM (inactive) | > 100 µM (inactive) | > 100 µM (inactive) | > 100 µM (inactive) | > 100 µM (inactive) | > 100 µM (inactive) | > 100 µM (inactive) | > 100 µM (inactive) | > 100 µM (inactive) | > 100 µM (inactive) | > 100 µM (inactive) | > 100 µM (inactive) | > 100 µM (inactive) | > 100 µM (inactive) | > 100 µM (inactive) | > 100 µM (inactive) | > 100 µM (inactive) |  | 
CN1N=C(c2ccccc2)c2cc(Cl)ccc2N=C1N/N=C/c1ccc(N(C)C)cc1 | > 100 µM (inactive) | > 100 µM (inactive) |  | > 100 µM (inactive) |  |  | > 100 µM (inactive) | > 100 µM (inactive) | > 100 µM (inactive) | > 100 µM (inactive) | 49.2 µM (inactive) | > 100 µM (inactive) | 70.5 µM (inactive) | 64.3 µM (inactive) | > 100 µM (inactive) | > 100 µM (inactive) |  | > 100 µM (inactive) |  | > 100 µM (inactive)
